This is an account of results in patent US6156758A, “Antibacterial quinazoline compounds” (Isis Pharmaceuticals, Inc., priority 1999, dated 2000).

Common to all, as to type: cell-based
For experiment [1], the system named is S. pyogenes. The experiment can be described thus: MIC determination, initial screen, S. pyogenes. The settings on record: Streptococcus pyogenes, ATCC14289; Table 1; ATCC 14289 (initial screen); 24 h, A595. An excerpt: (§1) The Streptococcus pyogenes strains, Klebsiella pneumoniae, Escherichia coli, Staphylococcus aureus, Enterococcus faecalis used in the antibacterial activity studies ATCC 14289, 49399, 13883, 25922, 13709, 29212, respectively, were obtained from the American Type Culture Collection, Rockville, Md. The strain E. coli imp- is a mutant strain of wild type E. coli with increased outer membrane permeability. In initial screens, E. coli imp- and S. pyrogenes (ATCC 14289) were used. The E. coli imp-strain was grown in LB broth, and the S. pyogenes strain was grown in Todd-Hewitt broth. Interesting compounds were further evaluated in the tier II screens against other bacterial screens. S. aureus was grown in trypticase soy broth, E. faecalis in Todd-Hewitt broth, wild type E. coli and K. pneumoniae, in nutrient broth. All bacterial were grown at 37° C.
(§2) The assays were carried out in 150 μL volume in duplicate in 96-well clear flat-bottom plates. The bacterial suspension from an overnight culture growth in appropriate medium was added to a solution of test compound in 4% DMSO in water. Final bacterial inoculum was approximately 10^5 -10^6 CFU/well. The percent growth of the bacteria in test wells relative to that observed for a well containing no compound was determined by measuring absorbance at 595 nm (A595) after 24 h. […] Both ampicillin and tetracycline were used as antibiotic-positive controls in each screening assay for S. pyogenes, E. coli imp-, E. coli, S. aureus, E. faecalis, K. pneumoniae and P. vulgaris. Ciprofloxacin was used as an antibiotic positive control in each screening assay for P. aeruginosa.

The next experiment deals with E. coli imp-. Briefly: MIC determination, initial screen, E. coli imp-. To be noted: Escherichia coli, 24 h, read-out: MIC E. coli imp.
Excerpt: as §1, §2

Another experiment has as its system K. pneumoniae. The experiment can be described thus: MIC determination, tier II screen, K. pneumoniae (#13883). To be noted: Klebsiella pneumoniae; Table 2; 24 h, A595.
Excerpt: as §1, §2

A further experiment relates to E. coli. The experiment can be described thus: MIC determination, tier II screen, wild type E. coli (#25922). To be noted: Escherichia coli, Table 2, 24 h, A595.
Excerpt: as §1, §2

Experiment [2] deals with S. pyogenes. Briefly: MIC determination, tier II screen, S. pyogenes (#49399). The settings on record: Streptococcus pyogenes; Table 2; 24 h, A595.
Excerpt: as §1, §2

The test system of another experiment is S. aureus. The experiment can be described thus: MIC determination, tier II screen, S. aureus (#13709). The settings on record: Staphylococcus aureus; Table 2; 24 h, A595.
Excerpt: as §1, §2

A further experiment relates to E. faecalis. Briefly: MIC determination, tier II screen, E. faecalis (#29212). To be noted: Enterococcus faecalis; Table 2; 24 h, A595.
Excerpt: as §1, §2

In brackets after ≈: the same amount, converted by molar mass.

In the case of `COC(=O)c1nc(Cl)c(NC2CCN(c3nc(N)c4cc(OC)c(OC)cc4n3)CC2)nc1N` [Compound 1, 3-Amino-5-[1-(4-amino-6,7-dimethoxy-quinazolin-2-yl)-piperidin-4-ylamino]-6-chloro-pyrazine-2-carboxylic acid methyl ester], the MIC in the experiment with S. pyogenes [1] is 12 to 25 µM (≈ 5.87 to 12.2 µg/mL); with E. coli imp- it was more than 25 µM.
As to `COC(=O)c1ncc(NC2CCN(c3nc(N)c4cc(OC)c(OC)cc4n3)CC2)nc1N` [Compound 2, 3-Amino-5-[1-(4-amino-6,7-dimethoxy-quinazolin-2-yl)-piperidin-4-ylamino]-pyrazine-2-carboxylic acid methyl ester], the minimum inhibitory concentration (MIC) in the experiment on S. pyogenes [1] and with E. coli imp- was more than 50 µM in each case.
As to `COC(=O)c1ccc(NC2CCN(c3nc(N)c4cc(OC)c(OC)cc4n3)CC2)nc1` [Compound 3, 6-[1-(4-Amino-6,7-dimethoxy-quinazolin-2-yl)-piperidin-4-ylamino]-nicotinicacid methyl ester], the MIC with S. pyogenes [1] is 25 to 50 µM (≈ 11 to 21.9 µg/mL); in the experiment on E. coli imp-, more than 50 µM.
As to `COC(=O)c1ccc(NC2CCN(c3nc(N)c4cc(OC)c(OC)cc4n3)CC2)cc1` [Compound 4, 4-[1-(4-Amino-6,7-dimethoxy-quinazolin-2-yl)-piperidin-4-ylamino]-benzoic acid methyl ester], the MIC against S. pyogenes [1] is 5 to 25 µM (≈ 2.19 to 10.9 µg/mL); in the experiment on E. coli imp-, 5 to 25 µM (≈ 2.19 to 10.9 µg/mL); in the experiment with K. pneumoniae, more than 100 µM; against E. coli, more than 100 µM; in the experiment on S. pyogenes [2], 5 to 25 µM (≈ 2.19 to 10.9 µg/mL); in the experiment on S. aureus, more than 100 µM. In the experiment on E. faecalis, this molecule came in with an MIC of 20 to 40 µM (≈ 8.75 to 17.5 µg/mL).
As to `COc1cc2nc(N3CCC(Nc4ccc(C(=O)OC(C)(C)C)cc4)CC3)nc(N)c2cc1OC` [Compound 5, 4-[1-(4-Amino-6,7-dimethoxy-quinazolin-2-yl)-piperidin-4-ylamino]-benzoic acid tert-butyl ester], the minimum inhibitory concentration (MIC) against S. pyogenes [1] is 3 to 6 µM (≈ 1.44 to 2.88 µg/mL); in the experiment on E. coli imp- it was 6 to 12 µM (≈ 2.88 to 5.75 µg/mL); with K. pneumoniae, more than 100 µM; against E. coli, more than 100 µM; with S. pyogenes [2], 6 to 12 µM (≈ 2.88 to 5.75 µg/mL); with S. aureus it was more than 100 µM. For the same molecule, in the experiment with E. faecalis, the MIC lay in the range of 6 to 12 µM (≈ 2.88 to 5.75 µg/mL).
On to `COc1cc2nc(N3CCC(Nc4ccc(C(=O)OC(C)(C)C)cc4[N+](=O)[O-])CC3)nc(N)c2cc1OC` [Compound 6, 4-[1-(4-Amino-6,7-dimethoxyquinazolin-2-yl)piperidin-4-ylamino]-3-nitrobenzoic acid tert-butyl ester], for which the MIC lay within 50 to 100 µM (≈ 26.2 to 52.5 µg/mL) in the experiment on S. pyogenes [1] and 25 to 50 µM (≈ 13.1 to 26.2 µg/mL) in the experiment with E. coli imp-.
Regarding `COc1cc2cnc(N3CCC(Nc4ccc(C(=O)OC(C)(C)C)cc4)CC3)nc2cc1OC` [Compound 13, 4-[1-(6,7-Dimethoxyquinazolin-2-yl)piperidin-4-ylamino]benzoic acid tert-butyl ester], the MIC with S. pyogenes [1] and with E. coli imp- was more than 20 µM each time.
As to `COc1cc2nc(N3CCC(Nc4ccc(C(=O)OC(C)(C)C)cc4)CC3)nc(OC)c2cc1OC` [Compound 14, 4-[1-(4,6,7-Trimethoxyquinazolin-2-yl)piperidin-4-ylamino]benzoic acid tert-butyl ester], the MIC with S. pyogenes [1] and in the experiment with E. coli imp- was less than 100 µM each time.
For the molecule `COc1cc2nc(N3CCC(Nc4ccc(C(=O)OC(C)(C)C)cc4)CC3)[nH]c(=O)c2cc1OC` [Compound 15, 4-[1-(6,7-Dimethoxy-4-oxo-3,4-dihydroquinazolin-2-yl)piperidin-4-ylamino]benzoic acid tert-butyl ester], the MIC in the experiment on S. pyogenes [1] and with E. coli imp- was more than 100 µM throughout.
For the molecule `COc1cc2nc(N3CCC(Nc4ccc(C(=O)OC(C)(C)C)cc4)CC3)nc(Nc3ccc(C)cc3)c2cc1OC` [Compound 16, 4-[1-(6,7-Dimethoxy-4-p-tolylaminoquinazolin-2-yl)piperidin-4-ylamino]benzoic acid tert-butyl ester], the figures for the MIC against S. pyogenes [1] and in the experiment on E. coli imp- were 2.5 to 5 µM (≈ 1.42 to 2.85 µg/mL) and 10 to 20 µM (≈ 5.7 to 11.4 µg/mL), respectively.
The like results for `CC(C)(C)OC(=O)c1ccc(NC2CCN(c3nc(N)c4ccccc4n3)CC2)cc1` [Compound 17, 4-[1-(4-Aminoquinazolin-2-yl)piperidin-4-ylamino]benzoic acid tert-butyl ester] were, in that order, less than 100 µM and less than 100 µM.
On the same counts, the results for `COc1cc2nc(N3CCC(Nc4nc(N)c(C(=O)O)nc4Cl)CC3)nc(N)c2cc1OC` [Compound 18, 3-Amino-5-[1-(4-amino-6,7-dimethoxyquinazolin-2-yl)piperidin-4-ylamino]-6-chloropyrazine-2-carboxylic acid] are more than 100 µM and more than 100 µM.
The like results for `COc1cc2nc(N3CCC(Nc4cnc(C(=O)O)c(N)n4)CC3)nc(N)c2cc1OC` [Compound 19, 3-Amino-5-[1-(4-amino-6,7-dimethoxyquinazolin-2-yl)piperidin-4-ylamino]pyrazine-2-carboxylic acid] were, in that order, more than 25 µM and more than 25 µM.
Turning to `COc1cc2nc(N3CCC(Nc4ccc(C(=O)O)cn4)CC3)nc(N)c2cc1OC` [Compound 20, 6-[1-(4-Amino-6,7-dimethoxyquinazolin-2-yl)piperidin-4-ylamino]nicotinic acid], the MIC with S. pyogenes [1] is more than 20 µM; with E. coli imp-, more than 50 µM.
For `COc1cc2nc(N3CCC(Nc4ccc(C(=O)O)cc4[N+](=O)[O-])CC3)nc(N)c2cc1OC` [Compound 21, 4-[1-(4-Amino-6,7-dimethoxyquinazolin-2-yl)piperidin-4-ylamino]-3-nitrobenzoic acid], the MIC in the experiment with S. pyogenes [1] and in the experiment on E. coli imp- was more than 20 µM throughout.
Turning to `COc1cc2nc(N3CCC(Nc4ccc(C(=O)O)cc4)CC3)nc(N)c2cc1OC` [Compound 22, 4-[1-(4-Amino-6,7-dimethoxyquinazolin-2-yl)piperidin-4-ylamino]benzoic acid], the MIC against S. pyogenes [1] was more than 25 µM; with E. coli imp-, 0.4 to 2 µM (≈ 0.169 to 0.847 µg/mL); against K. pneumoniae, 6 to 12 µM (≈ 2.54 to 5.08 µg/mL); against E. coli, 60 to 80 µM (≈ 25.4 to 33.9 µg/mL); in the experiment on S. pyogenes [2], more than 25 µM; in the experiment on S. aureus it was 6 to 12 µM (≈ 2.54 to 5.08 µg/mL). The molecule further displayed an MIC against E. faecalis of more than 100 µM.
Regarding `COc1cc2cnc(N3CCC(Nc4ccc(C(=O)O)cc4)CC3)nc2cc1OC` [Compound 28, 4-[1-(6,7-Dimethoxyquinazolin-2-yl)piperidin-4-ylamino]benzoic acid], the MIC with S. pyogenes [1] and with E. coli imp- was more than 20 µM in each case.
Regarding `COc1cc2nc(N3CCC(Nc4ccc(C(=O)O)cc4)CC3)nc(OC)c2cc1OC` [Compound 29, 4-[1-(4,6,7-Trimethoxyquinazolin-2-yl)piperidin-4-ylamino]benzoic acid], the MIC against S. pyogenes [1] and in the experiment on E. coli imp- was more than 20 µM throughout.
As for `COc1cc2nc(N3CCC(Nc4ccc(C(=O)O)cc4)CC3)[nH]c(=O)c2cc1OC` [Compound 30, 4-[1-(6,7-Dimethoxy-4-oxo-3,4-dihydroquinazolin-2-yl)piperidin-4-ylamino]benzoic acid], the MIC against S. pyogenes [1] and with E. coli imp- was more than 20 µM in each case.
On to `COc1cc2nc(N3CCC(Nc4ccc(C(=O)O)cc4)CC3)nc(Nc3ccc(C)cc3)c2cc1OC` [Compound 31, 4-[1-(6,7-Dimethoxy-4-p-tolylaminoquinazolin-2-yl)piperidin-4-ylamino]benzoic acid], for which the MIC in the experiment with S. pyogenes [1] and with E. coli imp- was more than 20 µM throughout.
Consider `Nc1nc(N2CCC(Nc3ccc(C(=O)O)cc3)CC2)nc2ccccc12` [Compound 32, 4-[1-(4-Aminoquinazolin-2-yl)piperidin-4-ylamino]benzoic acid], for which the MIC against S. pyogenes [1] and with E. coli imp- was more than 100 µM each time.

For orientation: MIC means the lowest concentration found to suppress growth.
